According to PMC2919064 (Journal of medicinal chemistry, 2010):
Read-outs that look alike come from different tables or passages of the source. Values belong to the molecule of their own block, whether it stands above or below them.

Experiments:
Panc04.03 cells [1] = test: MTS cell proliferation assay, pancreatic cancer cells; conditions: read-out: inhibition of pancreatic cancer cell lines IC50, Panc 04.03
HDAC1 = HDAC1 (Homo sapiens, UniProt Q13547); test: HDAC isoform inhibition assay
SU86.86 cells = test: MTS cell proliferation assay, pancreatic cancer cells; conditions: read-out: inhibition of pancreatic cancer cell lines IC50, SU 86.86
MiaPaca-2 cells = test: as above; conditions: read-out: inhibition of pancreatic cancer cell lines IC50, Mia Paca-2
BxPC-3 cells = test: as above; conditions: read-out: inhibition of pancreatic cancer cell lines IC50, BxPC-3
HDAC6 = target: T1, HDAC6 (Homo sapiens, UniProt Q9UBN7); test: HDAC isoform inhibition assay
T1 sequence (Q9UBN7 1-1215): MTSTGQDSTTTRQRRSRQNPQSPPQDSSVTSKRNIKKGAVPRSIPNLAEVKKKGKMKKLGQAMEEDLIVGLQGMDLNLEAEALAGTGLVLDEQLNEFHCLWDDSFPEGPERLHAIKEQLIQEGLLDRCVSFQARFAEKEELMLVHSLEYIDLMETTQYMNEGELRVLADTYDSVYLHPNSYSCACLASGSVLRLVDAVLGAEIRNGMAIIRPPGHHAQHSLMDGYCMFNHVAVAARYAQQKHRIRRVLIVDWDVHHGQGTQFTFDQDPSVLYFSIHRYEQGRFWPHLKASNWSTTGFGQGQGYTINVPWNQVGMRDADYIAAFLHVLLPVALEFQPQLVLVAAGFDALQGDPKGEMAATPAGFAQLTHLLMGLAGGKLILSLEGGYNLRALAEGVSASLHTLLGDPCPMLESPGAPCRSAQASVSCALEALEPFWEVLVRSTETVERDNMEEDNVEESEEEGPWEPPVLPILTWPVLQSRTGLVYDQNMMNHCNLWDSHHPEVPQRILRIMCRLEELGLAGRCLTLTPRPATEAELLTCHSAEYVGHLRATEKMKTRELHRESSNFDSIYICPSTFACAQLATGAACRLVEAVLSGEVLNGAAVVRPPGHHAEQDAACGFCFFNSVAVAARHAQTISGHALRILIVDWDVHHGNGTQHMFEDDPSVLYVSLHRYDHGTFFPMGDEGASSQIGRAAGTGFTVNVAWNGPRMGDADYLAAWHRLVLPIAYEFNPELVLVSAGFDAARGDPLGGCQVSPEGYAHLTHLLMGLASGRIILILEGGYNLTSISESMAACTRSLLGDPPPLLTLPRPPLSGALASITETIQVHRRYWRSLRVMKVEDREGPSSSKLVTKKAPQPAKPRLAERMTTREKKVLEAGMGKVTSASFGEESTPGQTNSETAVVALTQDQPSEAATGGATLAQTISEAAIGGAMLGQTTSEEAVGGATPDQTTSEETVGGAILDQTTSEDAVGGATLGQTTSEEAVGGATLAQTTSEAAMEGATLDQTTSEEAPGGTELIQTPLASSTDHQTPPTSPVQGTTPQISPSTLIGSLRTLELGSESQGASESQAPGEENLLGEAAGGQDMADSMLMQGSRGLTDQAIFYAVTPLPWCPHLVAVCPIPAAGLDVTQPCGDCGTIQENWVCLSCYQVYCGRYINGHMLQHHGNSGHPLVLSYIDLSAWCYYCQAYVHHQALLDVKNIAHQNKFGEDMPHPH

HupT3 cells = test: MTS cell proliferation assay, pancreatic cancer cells; conditions: read-out: inhibition of pancreatic cancer cell lines IC50, Hup T3
HDAC3 = HDAC3 (Homo sapiens, UniProt O15379); test: HDAC isoform inhibition assay
p21 in BXPC-3 cell line = test: Immunoblot of CDK inhibitor p21 expression; assay type: cell-based; conditions: 5 µM for 18 h, vs vehicle (DMSO)
Panc04.03 cells [2] = test: Cell cycle analysis by flow cytometry; assay type: cell-based; conditions: 5 µM for 24 h, vs vehicle (DMSO)
[3] = system: SU86.86 and Panc04.03 xenografts; test: Xenograft tumor model, SU86.86 and Panc04.03, immunoblot of tumor proteins; assay type: in vivo, mouse
HDAC8 = target: T2, HDAC8 (Homo sapiens, UniProt Q9BY41); test: HDAC isoform inhibition assay
T2 sequence (Q9BY41 1-377): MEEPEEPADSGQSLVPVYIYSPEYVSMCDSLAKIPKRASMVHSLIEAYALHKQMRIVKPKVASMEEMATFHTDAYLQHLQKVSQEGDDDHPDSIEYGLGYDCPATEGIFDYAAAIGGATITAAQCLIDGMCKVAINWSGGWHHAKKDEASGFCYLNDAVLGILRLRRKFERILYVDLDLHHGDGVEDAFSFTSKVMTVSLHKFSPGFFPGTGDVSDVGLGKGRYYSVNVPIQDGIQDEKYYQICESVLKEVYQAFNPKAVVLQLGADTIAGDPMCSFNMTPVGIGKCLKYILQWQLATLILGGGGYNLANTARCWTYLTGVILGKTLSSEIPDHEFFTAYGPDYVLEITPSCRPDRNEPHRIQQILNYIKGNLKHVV

HDAC2 = HDAC2 (Homo sapiens, UniProt Q92769); test: HDAC isoform inhibition assay
HDAC10 = target: T3, HDAC10 (Homo sapiens, UniProt Q969S8); test: HDAC isoform inhibition assay
T3 sequence (Q969S8 1-669): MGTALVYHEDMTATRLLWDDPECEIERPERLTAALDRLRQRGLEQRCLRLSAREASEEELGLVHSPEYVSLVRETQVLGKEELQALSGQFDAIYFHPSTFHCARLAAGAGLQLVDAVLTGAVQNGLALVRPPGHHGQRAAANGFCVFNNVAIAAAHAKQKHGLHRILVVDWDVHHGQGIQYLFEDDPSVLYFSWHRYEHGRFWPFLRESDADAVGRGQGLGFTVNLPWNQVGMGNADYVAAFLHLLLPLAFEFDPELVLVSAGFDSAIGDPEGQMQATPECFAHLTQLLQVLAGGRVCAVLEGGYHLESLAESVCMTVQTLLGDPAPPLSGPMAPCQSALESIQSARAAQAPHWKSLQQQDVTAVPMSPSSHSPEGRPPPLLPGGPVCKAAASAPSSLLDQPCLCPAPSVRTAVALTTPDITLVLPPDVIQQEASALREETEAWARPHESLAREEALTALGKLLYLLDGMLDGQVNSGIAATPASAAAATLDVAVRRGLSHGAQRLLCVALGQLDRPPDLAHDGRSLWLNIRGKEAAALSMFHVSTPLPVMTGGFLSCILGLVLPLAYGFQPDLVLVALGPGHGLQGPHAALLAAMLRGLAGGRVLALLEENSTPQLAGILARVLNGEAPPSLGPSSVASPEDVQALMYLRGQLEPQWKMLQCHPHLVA

HDAC3, sequence (O15379 whole entry, canonical isoform): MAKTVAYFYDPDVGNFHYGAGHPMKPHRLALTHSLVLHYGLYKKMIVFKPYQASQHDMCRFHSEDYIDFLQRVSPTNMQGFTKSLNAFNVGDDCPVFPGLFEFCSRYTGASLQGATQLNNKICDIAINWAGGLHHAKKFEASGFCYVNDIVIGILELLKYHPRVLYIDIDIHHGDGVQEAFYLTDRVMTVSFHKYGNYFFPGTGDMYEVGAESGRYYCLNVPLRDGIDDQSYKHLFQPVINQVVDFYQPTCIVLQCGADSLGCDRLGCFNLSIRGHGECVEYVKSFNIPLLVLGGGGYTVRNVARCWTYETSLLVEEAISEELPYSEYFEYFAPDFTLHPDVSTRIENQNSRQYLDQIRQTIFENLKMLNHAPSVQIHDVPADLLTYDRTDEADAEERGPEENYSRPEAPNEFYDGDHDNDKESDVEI
HDAC3, sequence (Q9Y618 395-489 partner limits assumed): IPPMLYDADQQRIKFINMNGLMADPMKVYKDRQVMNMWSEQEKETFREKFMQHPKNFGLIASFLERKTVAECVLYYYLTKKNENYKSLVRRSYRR
HDAC1, sequence (Q13547 whole entry, canonical isoform): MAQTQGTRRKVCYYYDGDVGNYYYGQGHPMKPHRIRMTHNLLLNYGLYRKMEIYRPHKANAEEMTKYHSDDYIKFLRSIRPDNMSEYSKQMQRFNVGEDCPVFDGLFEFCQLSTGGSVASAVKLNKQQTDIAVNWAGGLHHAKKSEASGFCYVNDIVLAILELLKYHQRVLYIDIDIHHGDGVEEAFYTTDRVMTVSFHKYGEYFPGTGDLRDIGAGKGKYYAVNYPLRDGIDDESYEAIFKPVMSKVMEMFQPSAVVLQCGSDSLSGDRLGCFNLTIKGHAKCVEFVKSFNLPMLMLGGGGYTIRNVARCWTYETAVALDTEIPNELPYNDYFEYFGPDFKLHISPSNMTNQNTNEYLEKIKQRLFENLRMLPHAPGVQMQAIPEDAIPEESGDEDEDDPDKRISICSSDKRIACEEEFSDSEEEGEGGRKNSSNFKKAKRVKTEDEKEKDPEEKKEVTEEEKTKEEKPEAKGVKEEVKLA
HDAC2, sequence (Q92769 whole entry, canonical isoform): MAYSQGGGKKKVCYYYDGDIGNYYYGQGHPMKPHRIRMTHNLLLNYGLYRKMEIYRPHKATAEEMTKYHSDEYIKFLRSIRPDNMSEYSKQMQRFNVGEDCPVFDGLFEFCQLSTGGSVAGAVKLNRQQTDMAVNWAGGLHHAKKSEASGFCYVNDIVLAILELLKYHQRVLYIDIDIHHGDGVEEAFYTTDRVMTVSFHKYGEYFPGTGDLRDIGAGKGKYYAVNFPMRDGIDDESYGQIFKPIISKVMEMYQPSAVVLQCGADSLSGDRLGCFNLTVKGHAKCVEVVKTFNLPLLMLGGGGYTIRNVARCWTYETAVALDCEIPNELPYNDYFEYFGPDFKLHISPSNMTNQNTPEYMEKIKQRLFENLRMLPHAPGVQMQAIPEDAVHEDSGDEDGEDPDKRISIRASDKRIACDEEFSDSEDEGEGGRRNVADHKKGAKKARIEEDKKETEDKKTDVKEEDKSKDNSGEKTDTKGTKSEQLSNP

Molecule: O=C(CCCCCCC(=O)Nc1ccccc1)NO [SAHA (1a), suberoylanilide hydroxamic acid, reference compound]
- IC50 (HupT3 cells; Homo sapiens, HuP-T3, 72 h): 800 nM

Molecule: O=C(CCCCCCC(=O)Nc1cccc(-c2cn(C3CCCCC3)nn2)c1)NO [compound 4j, Octanedioic acid [3-(1-cyclohexyl-1H-[1,2,3]triazol-4-yl)phenyl]amide hydroxyamide]
- fold more potent than compound 4a, HDAC8 (HDAC8; ratio of IC50 vs 4a): 2- to 3 fold
- fold more potent than compound 4a, HDAC1 (HDAC1; ratio of IC50 vs 4a): 2- to 3 fold
- fold more potent than compound 4a, HDAC2 (HDAC2): 2- to 3 fold
- fold more potent than compound 4a, HDAC3 (HDAC3): 2- to 3 fold
- fold more potent than compound 4a, HDAC6 (HDAC6; ratio of IC50 vs 4a): 2- to 3 fold
- fold more potent than compound 4a, HDAC10 (HDAC10; ratio of IC50 vs 4a): 2- to 3 fold

Molecule: Octanedioic acid (2-aminophenyl)amide [3-(1-phenyl-1H-[1,2,3] triazol-4-yl)phenyl]amide [12a]
- IC50 (HDAC8; read-out: IC50 HDAC8, tested at Nanosyn, 17 hours at 25 °C): > 30000 nM
- IC50 (Panc04.03 cells [1]; 72 h post treatment): > 50000 nM
- IC50 (SU86.86 cells; 72 h post treatment): 32000 nM
- IC50 (HDAC3; read-out: IC50 HDAC3): 122 ± 9 nM
- IC50 (MiaPaca-2 cells; 72 h post treatment): > 50000 nM
- IC50 (BxPC-3 cells; 72 h post treatment): > 50000 nM
- IC50 (HDAC6; read-out: IC50 HDAC6, tested at Nanosyn, 17 hours at 25 °C): > 30000 nM
- IC50 (HDAC10; read-out: IC50 HDAC10, tested at Nanosyn, 17 hours at 25 °C): > 30000 nM
- IC50 (HupT3 cells; 72 h post treatment): > 50000 nM

Second part, led by results:

- IC50 (Panc04.03 cells [1]; Homo sapiens, Panc 04.03, 72 h): 1000 nM
- IC50 (HDAC1): 3.04 nM
- IC50 (SU86.86 cells; Homo sapiens, SU.86.86, 72 h): 1000 nM
- IC50 (MiaPaca-2 cells; Homo sapiens, MIA PaCa-2, 72 h): 200 nM
- IC50 (BxPC-3 cells; Homo sapiens, BXPC-3, 72 h): 1000 nM
- IC50 (HDAC6): 7.6 nM
- IC50 (HupT3 cells; Homo sapiens, HuP-T3, 72 h): 200 nM
Molecule: O=C(CCCCCCC(=O)Nc1cccc(-c2cn(-c3ccc(CO)cc3)nn2)c1)NO [4f, Octanedioic acid hydroxyamide {3-[1-(4-hydroxymethylphenyl)-1H-[1,2,3]triazol-4-yl]phenyl}amide]

- IC50 (Panc04.03 cells [1]; Homo sapiens, Panc 04.03, 72 h): 100 nM
- IC50 (HDAC1): 5.06 nM
- IC50 (SU86.86 cells; Homo sapiens, SU.86.86, 72 h): 1000 nM
- IC50 (HDAC3): 3.39 nM
- IC50 (MiaPaca-2 cells; Homo sapiens, MIA PaCa-2, 72 h): 100 nM
- IC50 (BxPC-3 cells; Homo sapiens, BXPC-3, 72 h): 200 nM
- IC50 (HDAC6): 3.85 nM
- IC50 (HupT3 cells; Homo sapiens, HuP-T3, 72 h): 50 nM
Molecule: COc1ccc(-n2cc(-c3cccc(NC(=O)CCCCCCC(=O)NO)c3)nn2)cc1F [4h, Octanedioic acid {3-[1-(3-fluoro-4-methoxyphenyl)-1H-[1,2,3]-triazol-4-yl]phenyl}amide hydroxyamide]

- IC50 (Panc04.03 cells [1]; Homo sapiens, Panc 04.03, 72 h): < 500 nM
Molecule: O=C(CCCCCCC(=O)Nc1cccc(-c2cn(-c3ccccc3)nn2)c1)NO [compound 4a, octanedioic acid hydroxyamide[3-(1-phenyl-1H-[1,2,3]triazol-4-yl)phenyl]amide]
- expression of p21 protein (p21 in BXPC-3 cell line): increased expression of p21
- effect on cell cycle profile (Panc04.03 cells [2]): loss of S-phase cells and an increase in the percentage of cells in G1
- expression of CDK inhibitors p15, p16, p21, p27 and p57 in xenograft tumors ([3]; 10 and 100 mg/kg i.p. every 12 h for 48 h, athymic nude mice): re-activated
- pancreatic cancer cell growth in vivo ([3]; pancreatic tumor cell line xenografts, preliminary in vivo evaluation): suppresses pancreatic cancer cell growth in vivo
